Test results as given in article PMC10591299, “Targeting SHP2 with an Active Site Inhibitor Blocks Signaling and Breast Cancer Cell Phenotypes” (ACS Bio & Med Chem Au, 2023).

Columns and labels:
[1] = test system: MDA-MB468 cells; experiment: Colony formation in soft agar, MDA-MB468; format: cell-based; settings: MDA-MB468, 500 nM, 10 days, versus vehicle
Description: Since SHP2 is essential for the growth and transformation of BC cells,[8],[9],[11] we determined the effect of SHP2 inhibition with CNBCA in 2D and 3D culture systems. For the effect on cell growth, BC cells (BT474 and MDA-MB468) were seeded in 2D culture and treated with a single concentration of CNBCA (500 nM), the concentration that provided a 50% inhibition of SHP2 mediated signaling in BT474 cells. Images were collected at the start and every 24 h for a total of 72 h (3 days). […] For effect on anchorage independent growth, approximately 10^6 cells were seeded in soft agar as described previously,[24] and treated with CNBCA at 500 nM concentration for 10 days with refeeding and adjustment of compound concentration. […] Finally, the effect of CNBCA on cancer stem cell properties was determined by the suspension assay, in which only cells with stem-like properties only can grow and form mammospheres.[7],[24],[36] Approximately 10^6 cells were seeded in nonadherent 6 cm plates and treated with CNBCA (500 nM) for 10 days with complementation of media and drug concentration.
For colony formation studies, we used the soft agar assay, which keeps cells anchorage independently, allowing determination on the transformation phenotype of cancer cells, including breast cancer cells.[11],[35] For this assay, we first prepared a 5% stock suspension in PBS by boiling it in a microwave. […]

[2] = biological target: T1, PTP1B (Homo sapiens, UniProt P18031); experiment: Cellular thermal shift assay (CETSA), nontarget PTP1B immunoblot; format: binding; settings: 100 μM CNBCA, cell lysate
T1 construct: compared it with the nontarget PTP1B protein; endogenous in cells
T1 sequence (P18031 1-435): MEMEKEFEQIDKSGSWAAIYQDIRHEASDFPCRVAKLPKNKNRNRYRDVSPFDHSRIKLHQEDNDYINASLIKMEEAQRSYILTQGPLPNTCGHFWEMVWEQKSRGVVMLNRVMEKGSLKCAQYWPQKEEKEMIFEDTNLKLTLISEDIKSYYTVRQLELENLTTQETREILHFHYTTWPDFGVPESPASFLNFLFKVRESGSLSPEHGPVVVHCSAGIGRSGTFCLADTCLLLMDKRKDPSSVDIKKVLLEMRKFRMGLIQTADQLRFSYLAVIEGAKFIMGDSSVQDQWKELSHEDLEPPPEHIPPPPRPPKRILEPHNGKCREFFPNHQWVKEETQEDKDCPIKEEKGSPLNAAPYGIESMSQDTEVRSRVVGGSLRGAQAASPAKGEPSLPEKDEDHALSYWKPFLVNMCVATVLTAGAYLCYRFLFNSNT
From the text: First, we used the cellular thermal shift assay (CETSA) to show whether CNBCA binds to endogenous full-length SHP2 under cellular contexts. The CETSA assay is based on the principle that specific inhibitors bind to a target protein and confer relative stability from heat-induced denaturation and precipitation when compared to a nontarget protein present in the same milieu.[34] Accordingly, we performed CETSA to test the effect of CNBCA on the SHP2 protein stability and compared it with the nontarget PTP1B protein as described in the materials and methods.
After heat treatment, supernatants were analyzed by immunoblotting (IB) for SHP2 and the nontarget phosphatase PTP1B. […] To provide semiquantitative data, band densities of both SHP2 and PTP1B were measured and presented as bar graph. […] On the other hand, the nontarget protein PTP1B was reduced to approximately 50% at 49 °C, to 25% at 55 °C, and to less than 10% at 58 °C (Figure 3B and D).
For the CETSA study, total protein extracts (TPE) prepared from two breast cancer cells, the triple-negative MDA-MB468 and the HER2-positive JIMT-1 cells, were used. Briefly, TPE from the two cell lines were cleared by centrifugation, mixed with CNBCA at 100 μM concentration (the maximum amount used in the IC50 studies), and incubated for 10 min at room temperature to allow binding. The mixture was then divided into 100 μL aliquots, treated with heat for 10 min at different temperatures, ranging from 37 to 64 °C that differ by 3 °C intervals, cooled on ice for 10 min, centrifuged at 20,000g for 20 min to remove precipitated proteins, and the supernatants analyzed by immunoblotting (IB) for SHP2 and the nontarget PTP, PTP1B. Aliquots that were mixed with CNBCA, but not treated with heat were used as positive controls for comparison.

CCCCCCCCCOc1ccc(-c2ccc(C(=O)O)cc2)cc1CCCC(=O)O [CNBCA, 3′-(3-carboxypropyl)-4′-(nonyloxy)-[1,1′-biphenyl]-4-carboxylic acid]
colony formation in soft agar [1]: fewer and smaller colonies
PTP1B remaining in solution (band density) ([2]; heat 49 °C 10 min): approximately 50%
PTP1B remaining in solution (band density) ([2]; heat 55 °C 10 min): 25%
PTP1B remaining in solution (band density) ([2]; heat 58 °C 10 min): less than 10%
